The source of these data is US6310095A, “Inhibitors of protein isoprenyl transferases” (University of Pittsburgh, priority 1998, dated 2001).

Counter-ions that a name gives are not always drawn.

One experiment deals with T1, protein farnesyltransferase (Rattus norvegicus, UniProt Q02293+Q04631).
T1 construct: Rat brain protein farnesyltransferase activity is measured; from tissue; host or cells: rat brain; purified according to Reiss et al., Cell 62:81-88 (1990), steps one through three
The experiment in a line: in vitro inhibition of protein farnesyltransferase (scintillation proximity assay, biotin-K Ras B fragment). The class given is biochemical. The note with it: at 1 × 10^-5 M. Summed up:
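Rat brain enzyme, purified through three steps, in a scintillation proximity assay kit with biotin-K Ras B fragment substrate at 0.1 mM final. Value is % inhibition of farnesylation.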
In general terms: Scintillation proximity formats need no separation of bound from free tracer.
By inhibition is commonly meant the percentage by which the read-out fell short of the control. In turn, `CSCC[C@H](NC(=O)c1ccc(CN[C@H](CC2CCCCC2)[C@H](O)[C@H](O)CC(C)C)cc1-c1ccccc1)C(=O)O` [Example 715] displayed an inhibition at 10 µM of 67%.
Take `CCn1cc(NCc2ccc(C(=O)N[C@@H](CCSC)C(=O)O)c(-c3ccccc3)c2)c(=O)n1CC` [Example 364]: the inhibition at 10 µM is 69%.
Turning to `CSCC[C@H](NC(=O)c1ccc(CNCCCN2CCOCC2)cc1-c1ccccc1)C(=O)O` [Example 377], 10 µM produced 71% inhibition.
Turning to `CSCC[C@H](NC(=O)c1ccc(CNc2cccc(C)c2)cc1-c1ccccc1)C(=O)O` [Example 674], the inhibition at 10 µM amounted to 40%.
The molecule `CSCC[C@H](NC(=O)c1ccc(CNc2nccs2)cc1-c1ccccc1)C(=O)O` [Example 374] came in with an inhibition at 10 µM of 61%.

The same experiment, now with this note: at 1 × 10^-6 M.
Take `CSCC[C@H](NC(=O)c1ccc(S(=O)(=O)NCCCn2ccnc2)cc1-c1ccccc1C)C(=O)O` [Example 777]: the “% inhibition of farnesyltransferase” value stood at 83%.
Regarding `CSCC[C@H](NC(=O)c1ccc(/C=C/c2cncnc2)cc1-c1ccccc1C)C(=O)O` [Example 494], the “% inhibition of farnesyltransferase” value is reported as 96%.
Turning to `CSCC[C@H](NC(=O)c1ccc(C=CCc2ccc3ccccc3c2)cc1-c1ccccc1C)C(=O)O` [Example 496], the “% inhibition of farnesyltransferase” value was determined as 93%.
As to `CSCC[C@H](NC(=O)c1ccc(CN2CCN(C(=O)OC(C)(C)C)CC2)cc1-c1ccccc1C)C(=O)O` [Example 866], the “% inhibition of farnesyltransferase” value is 62%.
`CSCC[C@H](NC(=O)c1ccc(CCc2cccc(-c3ccccc3)c2)cc1-c1ccccc1C)C(=O)[O-].[Li+]` [Example 793]: the “% inhibition of farnesyltransferase” value was determined as 94%.
With `CSCC[C@H](NC(=O)c1ccc(CSCc2ccc(C)cc2)cc1-c1ccccc1C)C(=O)[O-].[Li+]` [Example 556], the “% inhibition of farnesyltransferase” value is 99%.
With `CSCC[C@H](NC(=O)c1ccc(OC/C=C/c2ccccc2)cc1-c1ccccc1C)C(=O)O` [Example 560], the “% inhibition of farnesyltransferase” value is 91%.
Still for that read-out and setting: in the case of `Cc1ccccc1-c1cc(CN(C2CC2)C2(Cc3ccccc3)CCC2)ccc1C(=O)N[C@@H](CCS(C)(=O)=O)C(=O)O` [Example 333] it was 99%.

The same experiment, now with this note: at 1 × 10^-6 M; read-out: % inhibition of farnesyltransferase.
For `COC(=O)[C@H](CCSC)NC(=O)c1ccc(NC(=O)[C@@H]2CSCN2)cc1-c1ccccc1` [Example 164, [4-((R)-thiazolidin-4-ylcarbonyl)amino-2-phenylbenzoyl]methionine methyl ester hydrochloride], the inhibition at 1 µM worked out at 92%.
Take `CSCC[C@H](NC(=O)c1ccc(CN[C@H](CO)Cc2ccccc2)cc1-c1ccccc1C)C(=O)O` [Example 727]: the inhibition at 1 µM worked out at 95%.
Turning to `CSCC[C@H](NC(=O)c1ccc(CN(CC(C)C)C(CC2CCCCC2)CC2CCCCC2)cc1-c1ccccc1C)C(=O)O` [Example 908], the inhibition at 1 µM was found to be 88%.
`CSCCC(NC(=O)c1ccc(NC(=O)c2cncnc2)cc1-c1ccccc1)C(=O)O` (stereo not shown) [Example 219, [4-(5-pyrimidylcarboxyamino)-2-phenylbenzoyl]methionine]: the inhibition at 1 µM is 56%.
For `CSCC[C@H](NC(=O)c1ccc(NCC(CO)Cc2ccccc2)cc1-c1ccccc1C)C(=O)O` (stereo partly shown) [Example 476, N-[4-N-(2-benzyl-3-hydroxypropyl)amino-2-(2-methylphenyl)benzoyl]methioninesodium salt], the inhibition at 1 µM is 91%.
Take `CSCC[C@H](NC(=O)c1ccc(CN(Cc2cncs2)S(C)(=O)=O)cc1-c1ccccc1C)C(=O)O` [Example 878, N-[4-N-(methanesulfonyl-N-thiazol-2-ylmethyl)aniinomethyl-2-(2-methylphenyl)-benzoyl]methionine]: the inhibition at 1 µM came out at 95%.
As to `COC(=O)c1cscc1NCc1ccc(C(=O)N[C@@H](CCSC)C(=O)O)c(-c2ccccc2C)c1` [Example 724], the inhibition at 1 µM was 87%.
In the case of `CSCC[C@H](NC(=O)c1ccc(CNCc2ccccc2)cc1-c1ccccc1)C(=O)O` [Example 936, N-[4-(N-benzylaminomethyl)-2-phenylbenzoyl]methionine hydrochloride salt], the inhibition at 1 µM stood at 69%.

Staying with this experiment, now noted: at 1 × 10^-7 M.
Take `CSCC[C@H](NC(=O)c1ccc(CCc2ccc(Oc3cccc(Cl)c3)cc2)cc1-c1ccccc1C)C(=O)O` [Example 859]: the “% inhibition of farnesyltransferase” value came to 86%.
On to `CSCC[C@H](NC(=O)c1ccc(CSc2ccccc2C(C)C)cc1-c1ccccc1C)C(=O)O` [Example 739], for which the “% inhibition of farnesyltransferase” value was determined as 83%.
For `CSCC[C@H](NC(=O)c1ccc(COCc2cccc(C)c2)cc1-c1ccccc1C)C(=O)[O-].[Li+]` [Example 578], the “% inhibition of farnesyltransferase” value worked out at 90%.
Regarding `CSCC[C@H](NC(=O)c1ccc(CN2CCC[C@@H]2COCc2ccccc2)cc1-c1ccccc1C)C(=O)O` [Example 993], the “% inhibition of farnesyltransferase” value was found to be 90%.
`CSCC[C@H](NC(=O)c1ccc(CSc2nc3cc(C)ccc3[nH]2)cc1-c1ccccc1C)C(=O)O` [Example 733]: the “% inhibition of farnesyltransferase” value was 60%.
For `CSCC[C@H](NC(=O)c1ccc(C=Cc2cncs2)cc1-c1ccccc1C)C(=O)[O-].[Li+]` [Example 785], the “% inhibition of farnesyltransferase” value worked out at 96%.
For the molecule `COc1ccccc1CCOCc1ccc(C(=O)N[C@@H](CCSC)C(=O)O)c(-c2ccccc2C)c1` [Example 589], the “% inhibition of farnesyltransferase” value is 91%.
For `CSCC[C@H](NC(=O)c1ccc(COCc2ccc(-c3cccc(F)c3)o2)cc1-c1ccccc1C)C(=O)[O-].[Li+]` [Example 436], the “% inhibition of farnesyltransferase” value worked out at 89%.
Take `CSCC[C@H](NC(=O)c1ccc(COCc2ccc(C)o2)cc1-c1ccccc1C)C(=O)O` [Example 532]: the “% inhibition of farnesyltransferase” value was found to be 88%.

Still in this experiment, the particulars now being: at 1 × 10^-7 M; read-out: % inhibition of farnesyltransferase.
Turning to `COc1ccccc1N(Cc1ccccc1)Cc1ccc(C(=O)N[C@@H](CCSC)C(=O)O)c(-c2ccccc2C)c1` [Example 839, N-[4-(N-benzyl-N-(2-methoxyphenyl)aniinomethyl)-2-(2-methylphenyl)benzoyl]methionine lithium salt], the inhibition at 0.1 µM was 63%.
Regarding `CSCC[C@H](NC(=O)c1ccc(CN[C@@H](CO)CC2CCCCC2)cc1-c1ccccc1C)C(=O)O` [Example 618, N-[4-(3-cyclohexylpropan-1-ol-2-ylaminomethyl)-2-(2-methylphenyl)benzoyl]methionine Trifluoroacetate Salt], the inhibition at 0.1 µM stood at 89%.

The same experiment, now with this note: at 1 × 10^-8 M.
On to `CSCC[C@H](NC(=O)c1ccc(COCc2ccc(-c3ccc(Cl)cc3)o2)cc1-c1ccccc1C)C(=O)NS(=O)(=O)c1ccccc1` [Example 819], for which the “% inhibition of farnesyltransferase” value is 76%.
As for `CSCC[C@H](NC(=O)c1ccc(COCCc2ccccc2Cl)cc1-c1ccccc1C)C(=O)[O-].[Li+]` [Example 588], the “% inhibition of farnesyltransferase” value was determined as 68%.
For the molecule `CSCC[C@H](NC(=O)c1ccc(CO[C@H](CSC(C)(C)C)Cc2ccccc2)cc1-c1ccccc1C)C(=O)O` [Example 994], the “% inhibition of farnesyltransferase” value amounted to 83%.

Staying with this experiment, now noted: read-out: % inhibition of farnesyltransferase.
Regarding `CSCC[C@H](NC(=O)c1ccc(CN(CCC2CCCCC2)Cc2ccccc2)cc1-c1ccccc1C)C(=O)O` [Example 605, N-[4-(N-benzyl-N-(2-cyclohexylethyl)aminomethyl)-2-(2-methylphenyl)benzoyl]methionine Lithium Salt], the inhibition at 0.01 µM amounted to 68%.
With `CSCC[C@H](NC(=O)c1ccc(NC(=O)C2=C(C(F)(F)F)C=CNC2)cc1-c1ccccc1)C(=O)O` [Example 283, [4-(1H-4-trifluoromethyl-1,2-dihydropyrid-3-ylcarbonylamino)-2-phenylbenzoyl]methionine sodium salt], the inhibition at 1 µM was 98%.
